From ChEMBL document CHEMBL1817626, “The structure-activity relationship of urea derivatives as anti-tuberculosis agents” (Bioorg Med Chem, 2011)
≈ marks a conversion by molar mass, not a printed value. Calls of active or inactive are those of the source. No cut-off for these calls is given here.

How the values were obtained:
Vero = experiment: Cytotoxicity against african green monkey Vero cells after 72 hrs by MTT assay; type: cell-based; settings: Chlorocebus sabaeus
Pseudomonas aeruginosa = experiment: Antibacterial activity against Pseudomonas aeruginosa; type: functional
Staphylococcus aureus = experiment: Antibacterial activity against Staphylococcus aureus; type: functional
[1] = molecular target: T1, Hydrolase, alpha/beta hydrolase fold family (Mycobacterium tuberculosis) (UniProt O69638); experiment: Inhibition of Mycobacterium tuberculosis recombinant EphE expressed in Escherichia coli BL21 using CMNPC as substrate at 10 nM after 30 mins by fluorescent assay relative to control
T1 sequence (whole entry): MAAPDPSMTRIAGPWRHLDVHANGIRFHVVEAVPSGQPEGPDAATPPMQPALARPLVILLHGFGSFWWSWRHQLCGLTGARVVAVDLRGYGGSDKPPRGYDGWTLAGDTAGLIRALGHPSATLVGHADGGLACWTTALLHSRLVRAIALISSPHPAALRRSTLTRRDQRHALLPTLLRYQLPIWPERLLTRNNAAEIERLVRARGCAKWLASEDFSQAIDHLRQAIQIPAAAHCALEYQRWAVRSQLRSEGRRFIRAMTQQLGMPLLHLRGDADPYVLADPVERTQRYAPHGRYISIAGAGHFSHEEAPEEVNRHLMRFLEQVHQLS

Klebsiella pneumoniae = experiment: Antibacterial activity against Klebsiella pneumoniae; type: functional
[2] = molecular target: T2, Epoxide hydrolase B (Mycobacterium tuberculosis) (UniProt P95276); experiment: Inhibition of Mycobacterium tuberculosis recombinant EphB expressed in Escherichia coli BL21 using CMNPC as substrate at 10 nM after 30 mins by fluorescent assay relative to control
T2 sequence (whole entry): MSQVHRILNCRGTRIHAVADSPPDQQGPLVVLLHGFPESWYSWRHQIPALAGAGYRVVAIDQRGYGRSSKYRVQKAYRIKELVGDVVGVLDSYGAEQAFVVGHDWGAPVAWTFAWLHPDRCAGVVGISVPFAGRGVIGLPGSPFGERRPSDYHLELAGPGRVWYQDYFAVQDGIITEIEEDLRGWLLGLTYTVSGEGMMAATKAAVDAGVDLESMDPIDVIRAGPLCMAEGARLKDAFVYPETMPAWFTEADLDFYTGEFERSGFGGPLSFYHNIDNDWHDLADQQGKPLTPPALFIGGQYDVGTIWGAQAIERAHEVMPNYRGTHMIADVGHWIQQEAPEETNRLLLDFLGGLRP

Escherichia coli [3] = experiment: Antibacterial activity against Escherichia coli […] TolC; type: functional
Enterococcus faecalis = experiment: Antibacterial activity against Enterococcus faecalis; type: functional
[4] = tested on: Mycolicibacterium smegmatis; experiment: microbe, parasite or virus in culture; settings: str. MC2 155, 168 h
[5] = molecular target: T3, Bifunctional epoxide hydrolase 2 (Homo sapiens, UniProt P34913); experiment: Inhibition of human recombinant soluble epoxide hydrolase using CMNPC as substrate after 10 mins by fluorescent assay
T3 sequence (P34913 whole entry): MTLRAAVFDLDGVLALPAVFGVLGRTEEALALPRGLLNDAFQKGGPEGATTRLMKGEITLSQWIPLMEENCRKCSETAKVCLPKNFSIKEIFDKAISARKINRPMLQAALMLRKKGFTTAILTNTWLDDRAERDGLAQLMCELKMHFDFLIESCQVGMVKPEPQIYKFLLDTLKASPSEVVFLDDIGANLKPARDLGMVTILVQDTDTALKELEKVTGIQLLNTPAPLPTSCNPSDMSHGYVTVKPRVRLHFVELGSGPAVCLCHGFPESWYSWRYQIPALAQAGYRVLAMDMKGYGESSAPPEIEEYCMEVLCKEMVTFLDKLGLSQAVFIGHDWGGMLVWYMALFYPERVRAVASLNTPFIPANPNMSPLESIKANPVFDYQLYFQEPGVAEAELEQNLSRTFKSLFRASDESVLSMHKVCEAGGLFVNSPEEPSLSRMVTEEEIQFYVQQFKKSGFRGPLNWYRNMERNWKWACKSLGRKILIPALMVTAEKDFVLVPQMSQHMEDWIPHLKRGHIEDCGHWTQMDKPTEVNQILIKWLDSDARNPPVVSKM

[6] = tested on: Mycobacterium tuberculosis; experiment: microbe, parasite or virus in culture; settings: H37Rv, 168 h
Bacillus anthracis = experiment: microbe, parasite or virus in culture
Escherichia coli [7] = experiment: Antibacterial activity against Escherichia coli K12; type: functional; settings: K-12
Enterococcus faecium = experiment: Antibacterial activity against Enterococcus faecium; type: functional

| SMILES | IC50 (Vero) | MIC (Pseudomonas aeruginosa) | MIC (Staphylococcus aureus) | inhibition [1] | MIC (Klebsiella pneumoniae) | inhibition [2] | MIC (Escherichia coli [3]) | MIC (Enterococcus faecalis) | MIC [4] | IC50 [5] | MIC [6] | MIC (Bacillus anthracis) | MIC (Escherichia coli [7]) | MIC (Enterococcus faecium) |
| --- | --- | --- | --- | --- | --- | --- | --- | --- | --- | --- | --- | --- | --- | --- |
| CCCCCCCNC(=O)Nc1ccc(C)c(Cl)c1 | 186 µg/mL (≈ 659 µM) | > 200 µg/mL | > 200 µg/mL | 99.3% | > 200 µg/mL | 91% | > 200 µg/mL | > 200 µg/mL | > 200 µg/mL | 1.6 nM | 3.1 µg/mL (≈ 11 µM) | > 200 µg/mL | > 200 µg/mL | > 200 µg/mL |
| Cc1ccc(NC(=O)NC(C)CCc2ccccc2)cc1Cl (stereo unspecified) | > 400 µg/mL | > 200 µg/mL | > 200 µg/mL | 97.4% | > 200 µg/mL | 81.9% | > 200 µg/mL | > 200 µg/mL | 25 µg/mL (≈ 78.9 µM) | 15 nM | 6 µg/mL (≈ 18.9 µM) | > 200 µg/mL | > 200 µg/mL | > 200 µg/mL |
| COCCCNC(=O)NC12CC3CC(CC(C3)C1)C2 | 20.4 µg/mL (≈ 76.6 µM) | > 200 µg/mL | > 200 µg/mL | 35.9% | > 200 µg/mL | 23.7% | > 200 µg/mL | > 200 µg/mL | 200 µg/mL (≈ 751 µM) | 386 nM | 100 µg/mL (≈ 375 µM) | > 200 µg/mL | > 200 µg/mL | > 200 µg/mL |
| CCCCCCNC(=O)NC1C2CC3CC(C2)CC1C3 (stereo unspecified) | 175 µg/mL (≈ 628 µM) | > 200 µg/mL | > 200 µg/mL | 100% | > 200 µg/mL | 32% | > 200 µg/mL | > 200 µg/mL | 6.25 µg/mL (≈ 22.4 µM) | 1 nM | 0.01 µg/mL (≈ 0.0359 µM) | > 200 µg/mL | > 200 µg/mL | > 200 µg/mL |
| O=C(NCc1ccccc1)NC1C2CC3CC(C2)CC1C3 (stereo unspecified) | 4.2 µg/mL (≈ 14.8 µM) | > 200 µg/mL | > 200 µg/mL | 34.1% | > 200 µg/mL | inactive | > 200 µg/mL | > 200 µg/mL | 100 µg/mL (≈ 352 µM) | 14.8 nM | 3.1 µg/mL (≈ 10.9 µM) | > 200 µg/mL | > 200 µg/mL | > 200 µg/mL |
| CC(C)NC(=O)NC1C2CC3CC(C2)CC1C3 (stereo unspecified) | 23.4 µg/mL (≈ 99 µM) | > 200 µg/mL | > 200 µg/mL | 57.3% | > 200 µg/mL | 27.2% | > 200 µg/mL | > 200 µg/mL | > 100 µg/mL | 84.4 nM | 50 µg/mL (≈ 212 µM) | > 200 µg/mL | > 200 µg/mL | > 200 µg/mL |
| CC1(C)C2CCC(CNC(=O)Nc3ccc(F)c(F)c3F)C1C2 (stereo unspecified) | 15.5 µg/mL (≈ 47.5 µM) | > 200 µg/mL | 3.13 µg/mL (≈ 9.59 µM) | 103% | > 200 µg/mL | 38.6% |  | > 200 µg/mL | 1.6 µg/mL (≈ 4.9 µM) | 0.4 nM | 0.2 µg/mL (≈ 0.613 µM) | 1.6 µg/mL (≈ 4.9 µM) | > 200 µg/mL | > 200 µg/mL |
| O=C(Nc1ccc(F)c(F)c1F)NC1CCCCC1 | 15.9 µg/mL (≈ 58.4 µM) | > 200 µg/mL | > 200 µg/mL | 65.6% | > 200 µg/mL | 96.4% | > 200 µg/mL | > 200 µg/mL | 12.5 µg/mL (≈ 45.9 µM) | 1.2 nM |  | > 200 µg/mL | > 200 µg/mL | > 200 µg/mL |
| Cc1ccc(NC(=O)NCC23CC4CC(CC(C4)C2)C3)cc1Cl | 4.34 µg/mL (≈ 13 µM) | > 200 µg/mL | > 200 µg/mL | 94.1% | > 200 µg/mL | 33.9% | > 200 µg/mL | > 200 µg/mL | 0.8 µg/mL (≈ 2.4 µM) | 0.4 nM | 0.02 µg/mL (≈ 0.0601 µM) | > 200 µg/mL | > 200 µg/mL | > 200 µg/mL |
| CC(C)OCCNC(=O)NC12CC3CC(CC(C3)C1)C2 | 6.4 µg/mL (≈ 22.8 µM) | > 200 µg/mL | > 200 µg/mL | 14.7% | > 200 µg/mL | 11.9% | > 200 µg/mL | > 200 µg/mL | 200 µg/mL (≈ 713 µM) | 260 nM | 25 µg/mL (≈ 89.2 µM) | > 200 µg/mL | > 200 µg/mL | > 200 µg/mL |
| CCCCCCCNC(=O)NC1C2CC3CC(C2)CC1C3 (stereo unspecified) | 20 µg/mL (≈ 68.4 µM) | > 200 µg/mL | > 200 µg/mL | 99.9% | > 200 µg/mL | 37.1% | > 200 µg/mL | > 200 µg/mL | 1.6 µg/mL (≈ 5.47 µM) | 0.5 nM | 0.2 µg/mL (≈ 0.684 µM) | > 200 µg/mL | > 200 µg/mL | > 200 µg/mL |
| CC1C(NC(=O)Nc2ccc(F)c(F)c2F)CC2CC1C2(C)C (stereo unspecified) | 16 µg/mL (≈ 49 µM) | > 200 µg/mL | 3.12 µg/mL (≈ 9.56 µM) | 86.1% | > 200 µg/mL | 76.3% | 1.6 µg/mL (≈ 4.9 µM) | > 200 µg/mL | 0.8 µg/mL (≈ 2.45 µM) | 0.4 nM | 0.02 µg/mL (≈ 0.0613 µM) | 3.12 µg/mL (≈ 9.56 µM) | > 200 µg/mL | > 200 µg/mL |
